# Experimental data: patent US20110046170A1, “NOVEL PYRIMIDINE-PYRIDINE DERIVATIVES” (priority 2008, published 2011)
# pEC50: −log10 of the molar value.
# Target: human S1P1 receptor (Homo sapiens, UniProt P21453)
# Assay: GTPγS assay to determine EC50 values
# Type: biochemical
# Conditions: 35S-GTPγS binding, membrane preparations of CHO cells expressing recombinant human S1P1 receptor
# Procedure: GTPγS Assay to Determine EC50 Values
# GTPγS binding assays are performed in 96 well microtiter plates (Nunc, 442587) in a final volume of 200 μl, using membrane preparations of CHO cells expressing recombinant human S1P1 receptor. Assay conditions are 20 mM Hepes (Fluka, 54461), 100 mM NaCl (Fluka, 71378), 5 mM MgCl2 (Fluka, 63064), 0.1% BSA (Calbiochem, 126609), 1 μM GDP (Sigma, G-7127), 2.5% DMSO (Fluka, 41644), 50 pM ^35S-GTPγS (Amersham Biosciences, SJ1320). The pH is 7.4. Test compounds are dissolved and diluted in 100% DMSO and pre-incubated at rt for 30 min in 150 μl of the above assay buffer, in the absence of ^35S-GTPγS. After addition of 50 μl of ^35S-GTPγS, the assay is incubated for 1 h at rt. The assay is terminated by transfer of the reaction mixture to a Multiscreen plate (Millipore, MAHFC1H60) using a cell harvester from Packard Biosciences, and the plates are washed with ice-cold 10 mM Na2HPO4/NaH2PO4 (70%/30%), dried, sealed at the bottom and, after addition of 25 μl MicroScint20 (Packard Biosciences, order# 6013621), sealed on the top. Membrane-bound ^35S-GTPγS is measured with a TopCount from Packard Biosciences.
# EC50 is the concentration of agonist inducing 50% of the maximal specific ^35S-GTPγS binding. Specific binding is determined by subtracting non-specific binding from maximal binding. Maximal binding is the amount of cpm bound to the Multiscreen plate in the presence of 10 μM of S1P. Non-specific binding is the amount of binding in the absence of an agonist in the assay.
# Sequence of human S1P1 receptor (P21453 whole entry): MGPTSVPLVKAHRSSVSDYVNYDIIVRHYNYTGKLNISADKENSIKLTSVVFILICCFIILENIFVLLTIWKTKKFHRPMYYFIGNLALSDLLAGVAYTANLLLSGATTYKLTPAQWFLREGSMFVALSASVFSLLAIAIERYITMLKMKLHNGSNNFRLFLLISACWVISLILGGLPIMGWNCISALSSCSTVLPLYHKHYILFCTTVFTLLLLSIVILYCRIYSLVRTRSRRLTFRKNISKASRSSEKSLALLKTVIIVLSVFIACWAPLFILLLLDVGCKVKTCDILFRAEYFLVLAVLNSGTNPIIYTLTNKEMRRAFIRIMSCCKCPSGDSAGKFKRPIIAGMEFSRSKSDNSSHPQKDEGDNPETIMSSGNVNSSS
row,pEC50,SMILES
1,< 5.00,CCc1cc(-c2nc(-c3cc(C)nc(NCC(C)C)n3)no2)cnc1N(C)C(C)C [Example 224]
2,< 5.00,CCCN(C)c1nc(C)cc(-c2noc(-c3cnc(N(C)C(C)C)c(CC)c3)n2)n1 [Example 227]
3,< 5.00,CCc1cc(-c2nc(-c3cc(C)nc(N(C)CC(C)C)n3)no2)cnc1N(C)C(C)C [Example 229]
4,< 5.00,CCCN(CC)c1nc(C)cc(-c2noc(-c3cnc(N(C)C(C)C)c(CC)c3)n2)n1 [Example 231]
5,< 5.00,CCc1cc(-c2nc(-c3cc(C)nc(N(CC)C(C)C)n3)no2)cnc1N(C)C(C)C [Example 232]
6,< 5.00,CCc1cc(-c2nc(-c3cc(C)nc(OCC(C)C)n3)no2)cnc1N(C)C(C)C [Example 237]
7,< 5.00,Cc1cc(CC(C)C)nc(-c2nc(-c3cc(C)nc(NC(C)C)n3)no2)c1 [Example 241]
8,< 5.00,Cc1cc(CC(C)C)nc(-c2nc(-c3cc(C)nc(NCC(C)C)n3)no2)c1 [Example 242]
9,< 5.00,Cc1cc(CC(C)C)nc(-c2nc(-c3cc(C)nc(N(C)C(C)C)n3)no2)c1 [Example 246]
10,< 5.00,Cc1cc(CC(C)C)nc(-c2nc(-c3cc(C)nc(N(C)CC(C)C)n3)no2)c1 [Example 247]
11,< 5.00,CCN(CC)c1nc(C)cc(-c2noc(-c3cc(C)cc(CC(C)C)n3)n2)n1 [Example 248]
12,< 5.00,CCCN(CC)c1nc(C)cc(-c2noc(-c3cc(C)cc(CC(C)C)n3)n2)n1 [Example 249]
13,< 5.00,CCN(c1nc(C)cc(-c2noc(-c3cc(C)cc(CC(C)C)n3)n2)n1)C(C)C [Example 250]
14,< 5.00,Cc1cc(CC(C)C)nc(-c2nc(-c3cc(C)nc(OC(C)C)n3)no2)c1 [Example 254]
15,< 5.00,Cc1cc(CC(C)C)nc(-c2nc(-c3cc(C)nc(OCC(C)C)n3)no2)c1 [Example 255]

# The remaining lines, values behind:
row,SMILES,pEC50
1,COc1nc(C)cc(-c2nc(-c3cc(C)nc(C)c3)no2)n1 [Example 58],< 5.00
2,CCOc1nc(C)cc(-c2nc(-c3cc(C)nc(N(C)C)c3)no2)n1 [Example 70],< 5.00
3,CCCOc1nc(C)cc(-c2nc(-c3cc(C)nc(N(C)CC)c3)no2)n1 [Example 78],< 5.00
4,COc1nc(C)cc(-c2noc(-c3cc(C)nc(C)c3)n2)n1 [Example 180],< 5.00
5,CCCNc1nc(C)cc(-c2noc(-c3cc(C)cc(CC(C)C)n3)n2)n1 [Example 240],< 5.00

# Same assay, conditions: 35S-GTPγS binding, membrane preparations of CHO cells expressing recombinant human S1P1 receptor; agonistic activity
row,pEC50,SMILES
1,7.52,CNc1nc(C)cc(-c2noc(-c3cc(C)nc(CC(C)C)c3)n2)n1 [Example 81]
2,7.57,COc1nc(C)cc(-c2noc(-c3cc(C)nc(CC(C)C)c3)n2)n1 [Example 94]
3,8.89,Cc1cc(-c2noc(-c3cc(C)nc(N(C)C(C)C)n3)n2)cc(C)n1 [Example 109]
4,7.41,CCN(c1nc(C)cc(-c2nc(-c3cc(C)nc(OC)c3)no2)n1)C(C)C [Example 126]
5,6.85,CCc1cc(-c2noc(-c3cc(C)nc(OCC(C)C)n3)n2)cc(C)n1 [Example 135]
6,7.20,CCc1cc(-c2nc(-c3cc(C)nc(C)c3)no2)nc(N(C)C)n1 [Example 149]
7,7.28,CCc1cnc(-c2noc(-c3cc(C)nc(NC(C)C)n3)n2)cc1C [Example 159]
8,5.67,CCN(c1nc(C)cc(-c2noc(-c3ccnc(C)c3)n2)n1)C(C)C [Example 166]
9,7.47,CCCN(C)c1nc(C)cc(-c2noc(-c3cc(C)nc(C)c3)n2)n1 [Example 174]
10,7.96,CCN(CC)c1nc(C)cc(-c2noc(-c3cc(C)nc(C)c3)n2)n1 [Example 177]
11,7.96,CCCN(CC)c1nc(C)cc(-c2noc(-c3cc(C)nc(C)c3)n2)n1 [Example 178]
12,7.51,Cc1cc(-c2nc(-c3cc(C)nc(NCC(C)C)n3)no2)cc(Cl)n1 [Example 187]
13,6.62,Cc1cc(-c2nc(-c3cc(C)nc(N(C)C(C)C)n3)no2)cc(N(C)C)n1 [Example 196]
14,7.03,CCN(c1nc(C)cc(-c2noc(-c3cc(C)nc(N(C)C)c3)n2)n1)C(C)C [Example 200]
15,5.52,Cc1cc(-c2nc(-c3cc(C)nc(OCC(C)C)n3)no2)cc(N(C)C)n1 [Example 205]
16,5.24,CCCNc1nc(C)cc(-c2noc(-c3cnc(CC(C)C)c(C)c3)n2)n1 [Example 206]
17,6.10,CCCN(CC)c1nc(C)cc(-c2noc(-c3cnc(CC(C)C)c(C)c3)n2)n1 [Example 211]
18,6.14,Cc1cc(-c2noc(-c3cnc(OC(C)C)c(C)c3)n2)nc(NC(C)C)n1 [Example 214]
19,6.64,CCc1cc(-c2nc(-c3cc(C)nc(NC)n3)no2)cnc1N(C)C(C)C [Example 220]
20,5.38,CCc1cc(-c2nc(-c3cc(C)nc(NC(C)C)n3)no2)cnc1N(C)C(C)C [Example 223]
21,5.49,CCc1cc(-c2nc(-c3cc(C)nc(N(C)C(C)C)n3)no2)cnc1N(C)C(C)C [Example 228]
22,6.72,CCc1cc(-c2nc(-c3cc(C)nc(OC)n3)no2)cnc1N(C)C(C)C [Example 233]
23,6.50,Cc1cc(CC(C)C)nc(-c2nc(-c3cc(C)nc(N(C)C)n3)no2)c1 [Example 243]

# Second part, the compound before the results:
row,SMILES,pEC50
1,CCNc1nc(C)cc(-c2nc(-c3cc(C)nc(CC)c3)no2)n1 [Example 9],7.68
2,CCNc1nc(C)cc(-c2nc(-c3cc(C)nc(Cl)c3)no2)n1 [Example 12],7.57
3,Cc1cc(-c2noc(-c3cc(C)nc(NC(C)C)n3)n2)cc(C)n1 [Example 21],8.80
4,Cc1cc(-c2noc(-c3cc(C)nc(NC(C)C)n3)n2)cc(N(C)C)n1 [Example 25],7.34
5,Cc1cc(-c2noc(-c3cc(C)nc(NCC(C)C)n3)n2)cc(C)n1 [Example 27],8.10
6,COc1nc(C)cc(-c2nc(-c3cc(C)nc(C(C)C)c3)no2)n1 [Example 60],6.90
7,"CCNc1nc(CC)cc(-c2nc(-c3cc(C)nc(C)c3)no2)n1 [Example 79, {4-[3-(2,6-Dimethyl-pyridin-4-yl)-[1,2,4]oxadiazol-5-yl]-6-ethyl-pyrimidin-2-yl}-ethyl-amine]",8.92
8,Cc1cc(-c2nnc(-c3cc(C)nc(NC(C)C)n3)o2)cc(C)n1 [Example 100],6.89
9,CCCNc1nc(C)cc(-c2nc(-c3ccnc(C)c3)no2)n1 [Example 101],7.96
10,CCc1cc(-c2noc(-c3cc(C)nc(NC4CC4)n3)n2)cc(C)n1 [Example 116],8.68
11,CCc1cc(-c2noc(-c3cc(C)nc(N4CCCC4)n3)n2)cc(C)n1 [Example 118],6.73
12,CCCNc1nc(C)cc(-c2nc(-c3cc(C)nc(OC)c3)no2)n1 [Example 119],7.52
13,Cc1cc(-c2noc(-c3cc(C)nc(OC(C)C)n3)n2)cc(C)n1 [Example 132],7.36
14,Cc1cc(-c2noc(-c3cc(CC(C)C)nc(NC(C)C)n3)n2)cc(C)n1 [Example 142],7.59
15,CCc1cc(-c2nc(-c3cc(C)nc(C)c3)no2)nc(NC(C)C)n1 [Example 147],9.15
16,Cc1cc(-c2nc(-c3ccc(C)c(C)n3)no2)nc(NC(C)C)n1 [Example 155],7.70
17,CCCOc1nc(C)cc(-c2noc(-c3cc(C)nc(C)c3)n2)n1 [Example 182],6.40
18,CCCNc1nc(C)cc(-c2noc(-c3cc(C)nc(Cl)c3)n2)n1 [Example 185],7.66
19,CNc1nc(C)cc(-c2noc(-c3cc(C)nc(N(C)C)c3)n2)n1 [Example 188],6.25
20,COc1nc(C)cc(-c2noc(-c3cc(C)nc(N(C)C)c3)n2)n1 [Example 201],5.94
21,CNc1nc(C)cc(-c2noc(-c3cc(C)cc(CC(C)C)n3)n2)n1 [Example 238],6.40
22,COc1nc(C)cc(-c2noc(-c3cc(C)cc(CC(C)C)n3)n2)n1 [Example 251],6.70
23,CCCNc1nc(C)cc(-c2nnc(-c3cc(C)nc(C)c3)s2)n1 [Example 261],6.48

# Tested on: circulating lymphocytes
# Assay: Assessment of in vivo efficacy: circulating lymphocytes after oral administration
# Conditions: 6 h after oral administration of 10 mg/kg to normotensive male Wistar rats, compared to vehicle-treated group; mean ± SEM
# Procedure: Assessment of In Vivo Efficacy
# The efficacy of the compounds of formula (I) is assessed by measuring the circulating lymphocytes after oral administration of 3 to 30 mg/kg of a compound of formula (I) to normotensive male Wistar rats. The animals are housed in climate-controlled conditions with a 12 h-light/dark cycle, and have free access to normal rat chow and drinking water. Blood is collected before and 3, 6 and 24 h after drug administration. Full blood is subjected to hematology using Advia Hematology system (Bayer Diagnostics, Zurich, Switzerland).
# All data are presented as mean±SEM. Statistical analyses are performed by analysis of variance (ANOVA) using Statistica (StatSoft) and the Student-Newman-Keuls procedure for multiple comparisons. The null hypothesis is rejected when p<0.05.
row,SMILES,Lymphocyte counts [%]
1,Cc1cc(-c2noc(-c3cc(C)nc(NC(C)C)n3)n2)cc(C)n1 [Example 21],−71 ± 2
2,"CCNc1nc(CC)cc(-c2nc(-c3cc(C)nc(C)c3)no2)n1 [Example 79, {4-[3-(2,6-Dimethyl-pyridin-4-yl)-[1,2,4]oxadiazol-5-yl]-6-ethyl-pyrimidin-2-yl}-ethyl-amine]",−70 ± 2
